Among the data in patent publication US20230017661A1, “COMPOSITIONS AND MODULAR NANO- AND MICROPARTICLES FOR THE DELIVERY OF VARIOUS AGENTS AND USE THEREOF” (Veri Nano Inc., priority 2019, published 2023) are encapsulation efficiency values, retold here.

Molecules are shown by their SMILES.

This data set can be described thus: Encapsulation efficiency by 1H NMR analysis of nanoparticles. The data set is classed as physicochemical. The note with it: DMF internal standard, DMSO-d6, agent within the nanoparticle delivery system. The procedure:
For the ^1H NMR analysis, the nanoparticle suspension was centrifuged at 3214 rcf for 30 min. The supernatant was decanted. DMF was added to the precipitate as the internal reference for ^1H NMR analysis and weighed the amount added. DMSO-d6, was added and heated to 60° C. to dissolve the sample. The ^1H NMR was performed at 60° C.

Turning to `CCCCCCCC/C=C\CCCCCCCC(=O)O` [oleic acid], the encapsulation efficiency is 19%.
In the case of `CCC(=O)OC/C=C(C)/C=C/C=C(C)/C=C/C1=C(C)CCCC1(C)C` [vitamin A-propionate, retinyl propionate], the encapsulation efficiency is on record as 42.7%.
